Source: US10494366B2, “Pesticidally active amide heterocyclic derivatives with sulphur containing substituents” (Syngenta Participations AG, priority 2014, dated 2019)

Key:
Assay type in all cases: in vivo
[1] = test system: Spodoptera littoralis (Egyptian cotton leaf worm); test: Example B1: Spodoptera littoralis, sprayed cotton leaf discs; settings: foliar, 72 h, application rate 200 ppm, L1 larvae, 3 days after infestation, read-out: control in at least one of the three categories (mortality, anti-feedancy or growth inhibition)
Method: Cotton leaf discs were placed on agar in 24-well microtiter plates and sprayed with aqueous test solutions prepared from 10,000 ppm DMSO stock solutions. After drying the leaf discs were infested with five L1 larvae. The samples were assessed for mortality, anti-feedant effect, and growth inhibition in comparison to untreated samples 3 days after infestation. Control of Spodoptera littoralis by a test sample is when at least one of mortality, anti-feedant effect, and growth inhibition is higher than the untreated sample.

[2] = test system: Euschistus heros (neotropical brown stink bug); test: Example B6: Euschistus heros, sprayed soybean leaf; settings: 120 h, application rate 200 ppm, N-2 nymphs, 5 days after infestation
Text: Soybean leaf on agar in 24-well microtiter plates were sprayed with aqueous test solutions prepared from 10,000 ppm DMSO stock solutions. After drying the leaf were infested with N-2 nymphs.

[3] = test system: Plutella xylostella (diamond back moth); test: Example B3: Plutella xylostella, treated artificial diet; settings: 120 h, application rate 200 ppm, L2 larvae, 5 days after infestation, read-out: effect in at least one of the two categories (mortality or growth inhibition)
Method: (§1) 24-well microtiter plates with artificial diet were treated with aqueous test solutions prepared from 10,000 ppm DMSO stock solutions by pipetting. After drying, the plates were infested with L2 larvae (10 to 15 per well). The samples were assessed for mortality and growth inhibition in comparison to untreated samples 5 days after infestation.

[4] = test system: Spodoptera littoralis (Egyptian cotton leaf worm); test: Example B2: Spodoptera littoralis, systemic test via lettuce roots in agar; settings: 144 h, application rate 12.5 ppm, Spodoptera eggs, 6 days after infestation, read-out: control in at least one of the three categories (mortality, anti-feedancy or growth inhibition)
Text: Test compounds were applied by pipette from 10,000 ppm DMSO stock solutions into 24-well plates and mixed with agar. Lettuce seeds were placed on the agar and the multi well plate was closed by another plate which contains also agar. After 7 days the roots have absorbed the compound and the lettuce has grown into the lid plate. The lettuce leafs were now cut off into the lid plate. Spodoptera eggs were pipetted through a plastic stencil on a humid gel blotting paper and the plate closed with it. The samples were assessed for mortality, anti-feedant effect and growth inhibition in comparison to untreated samples 6 days after infestation.
The following compounds gave an effect of at least 80% control in at least one of the three categories (mortality, anti-feedancy or growth inhibition) at an application rate of 12.5 ppm: P2, P3, P8, P9, P11 and P17, P19, P20, P22, P23, P25, P26, P28, P30, P31, P32, P33, P40, P42, P43, P44, P45, P46, P47, P48, P49, P50, P51, P52, P53, P54, P60 and P61.

[5] = test system: Myzus persicae (green peach aphid); test: Example B5: Myzus persicae, sprayed sunflower leaf discs; settings: foliar, 144 h, application rate 200 ppm, aphid population of mixed ages, 6 days after infestation
Method: Sunflower leaf discs were placed on agar in a 24-well microtiter plate and sprayed with aqueous test solutions prepared from 10,000 ppm DMSO stock solutions. After drying, the leaf discs were infested with an aphid population of mixed ages. The samples were assessed for mortality 6 days after infestation.

[6] = test system: Diabrotica balteata (corn root worm); test: Example B4: Diabrotica balteata, sprayed maize sprouts; settings: 96 h, application rate 200 ppm, L2 larvae, 4 days after infestation, read-out: effect in at least one of the two categories (mortality or growth inhibition)
Method: as §1, with “Maize sprouts, placed on an agar layer in 24-well” for “24-well”, “plates” for “plates with artificial diet”, “spraying.” for “pipetting.”, “(6” for “(10”, “10” for “15”, “4” for “5”

CCS(=O)(=O)c1cc(-c2ccc(Cl)cc2)cnc1C(=O)/N=c1\sc(C(F)(F)F)nn1C [Compound P2, (N)-5-(4-chlorophenyl)-3-ethylsulfonyl-N-[3-methyl-5-(trifluoromethyl)-1,3,4-thiadiazol-2-ylidene]pyridine-2-carboxamide]
≥ 80%: percent control (mortality, anti-feedant effect or growth inhibition) at 200 ppm [1] | mortality at 200 ppm [2] | percent effect (mortality or growth inhibition) at 200 ppm [3] | percent control (mortality, anti-feedant effect or growth inhibition) at 12.5 ppm [4] | mortality at 200 ppm [5] | percent effect (mortality or growth inhibition) at 200 ppm [6]

CCS(=O)(=O)c1cc(-c2ccc(C(F)(F)F)cc2)cnc1C(=O)/N=c1\sc(C(F)(F)F)nn1C [Compound P5]
≥ 80%: percent control (mortality, anti-feedant effect or growth inhibition) at 200 ppm [1] | mortality at 200 ppm [2] | percent effect (mortality or growth inhibition) at 200 ppm [3] | mortality at 200 ppm [5] | percent effect (mortality or growth inhibition) at 200 ppm [6]

CCS(=O)(=O)c1cc(-c2ccccc2)cnc1C(=O)/N=c1\sc(C(F)(F)F)nn1C [Compound P6, (N)-3-ethylsulfonyl-N-[3-methyl-5-(trifluoromethyl)-1,3,4-thiadiazol-2-ylidene]-5-phenyl-pyridine-2-carboxamide]
≥ 80%: percent control (mortality, anti-feedant effect or growth inhibition) at 200 ppm [1] | mortality at 200 ppm [2] | percent effect (mortality or growth inhibition) at 200 ppm [3] | mortality at 200 ppm [5] | percent effect (mortality or growth inhibition) at 200 ppm [6]

CCS(=O)(=O)c1cc(-c2ccc(C(F)(F)F)cc2)cnc1C(=O)N=c1ccc(SC(F)(F)F)cn1C [Compound P16]
≥ 80%: percent control (mortality, anti-feedant effect or growth inhibition) at 200 ppm [1] | mortality at 200 ppm [2] | percent effect (mortality or growth inhibition) at 200 ppm [3] | mortality at 200 ppm [5] | percent effect (mortality or growth inhibition) at 200 ppm [6]

CCS(=O)(=O)c1cc(C2CC2)cnc1C(=O)/N=c1\ccc(SC(F)(F)F)cn1C [Compound P18, (N)-5-cyclopropyl-3-ethylsulfonyl-N-[1-methyl-5-(trifluoromethylsulfanyl)-2-pyridylidene]pyridine-2-carboxamide]
≥ 80%: percent control (mortality, anti-feedant effect or growth inhibition) at 200 ppm [1] | mortality at 200 ppm [2] | percent effect (mortality or growth inhibition) at 200 ppm [3] | mortality at 200 ppm [5] | percent effect (mortality or growth inhibition) at 200 ppm [6]

CCS(=O)(=O)c1cc(-c2cc(F)ccc2F)cnc1C(=O)/N=c1\sc(C(F)(F)F)nn1C [Compound P33]
≥ 80%: percent control (mortality, anti-feedant effect or growth inhibition) at 200 ppm [1] | mortality at 200 ppm [2] | percent effect (mortality or growth inhibition) at 200 ppm [3] | percent control (mortality, anti-feedant effect or growth inhibition) at 12.5 ppm [4] | percent effect (mortality or growth inhibition) at 200 ppm [6]

CCS(=O)(=O)c1cc(-c2ncc(C(F)(F)F)cn2)cnc1C(=O)/N=c1\sc(C(F)(F)F)nn1C [Compound P43]
≥ 80%: percent control (mortality, anti-feedant effect or growth inhibition) at 200 ppm [1] | mortality at 200 ppm [2] | percent effect (mortality or growth inhibition) at 200 ppm [3] | percent control (mortality, anti-feedant effect or growth inhibition) at 12.5 ppm [4] | percent effect (mortality or growth inhibition) at 200 ppm [6]

CCS(=O)(=O)c1cc(-c2cccc(C(F)(F)F)n2)cnc1C(=O)/N=c1\sc(C(F)(F)F)nn1C [Compound P44]
≥ 80%: percent control (mortality, anti-feedant effect or growth inhibition) at 200 ppm [1] | mortality at 200 ppm [2] | percent effect (mortality or growth inhibition) at 200 ppm [3] | percent control (mortality, anti-feedant effect or growth inhibition) at 12.5 ppm [4] | percent effect (mortality or growth inhibition) at 200 ppm [6]

CCS(=O)(=O)c1cc(-c2ncc(C(F)(F)F)cc2F)cnc1C(=O)/N=c1\sc(C(F)(F)F)nn1C [Compound P47]
≥ 80%: percent control (mortality, anti-feedant effect or growth inhibition) at 200 ppm [1] | mortality at 200 ppm [2] | percent effect (mortality or growth inhibition) at 200 ppm [3] | percent control (mortality, anti-feedant effect or growth inhibition) at 12.5 ppm [4] | percent effect (mortality or growth inhibition) at 200 ppm [6]

CCS(=O)(=O)c1cc(-c2cccc(C#N)n2)cnc1C(=O)/N=c1\sc(C(F)(F)F)nn1C [Compound P48]
≥ 80%: percent control (mortality, anti-feedant effect or growth inhibition) at 200 ppm [1] | mortality at 200 ppm [2] | percent effect (mortality or growth inhibition) at 200 ppm [3] | percent control (mortality, anti-feedant effect or growth inhibition) at 12.5 ppm [4] | percent effect (mortality or growth inhibition) at 200 ppm [6]

CCS(=O)(=O)c1cc(-c2ccc(Cl)cn2)cnc1C(=O)/N=c1\sc(C(F)(F)F)nn1C [Compound P49]
≥ 80%: percent control (mortality, anti-feedant effect or growth inhibition) at 200 ppm [1] | mortality at 200 ppm [2] | percent effect (mortality or growth inhibition) at 200 ppm [3] | percent control (mortality, anti-feedant effect or growth inhibition) at 12.5 ppm [4] | percent effect (mortality or growth inhibition) at 200 ppm [6]

CCS(=O)(=O)c1cc(-c2ccc(C(F)(F)F)cn2)cnc1C(=O)/N=c1\sc(C(F)(F)F)nn1C [Compound P50]
≥ 80%: percent control (mortality, anti-feedant effect or growth inhibition) at 200 ppm [1] | mortality at 200 ppm [2] | percent effect (mortality or growth inhibition) at 200 ppm [3] | percent control (mortality, anti-feedant effect or growth inhibition) at 12.5 ppm [4] | percent effect (mortality or growth inhibition) at 200 ppm [6]

CCS(=O)(=O)c1cc(-c2ccc(C#N)nc2)cnc1C(=O)/N=c1\sc(C(F)(F)F)nn1C [Compound P52]
≥ 80%: percent control (mortality, anti-feedant effect or growth inhibition) at 200 ppm [1] | mortality at 200 ppm [2] | percent effect (mortality or growth inhibition) at 200 ppm [3] | percent control (mortality, anti-feedant effect or growth inhibition) at 12.5 ppm [4] | percent effect (mortality or growth inhibition) at 200 ppm [6]

CCS(=O)(=O)c1cc(-c2cncc(C(F)(F)F)c2)cnc1C(=O)/N=c1\sc(C(F)(F)F)nn1C [Compound P53]
≥ 80%: percent control (mortality, anti-feedant effect or growth inhibition) at 200 ppm [1] | percent effect (mortality or growth inhibition) at 200 ppm [3] | percent control (mortality, anti-feedant effect or growth inhibition) at 12.5 ppm [4] | mortality at 200 ppm [5] | percent effect (mortality or growth inhibition) at 200 ppm [6]

CCS(=O)(=O)c1cc(-c2cnc(C(F)(F)F)s2)cnc1C(=O)/N=c1\sc(C(F)(F)F)nn1C [Compound P56]
≥ 80%: percent control (mortality, anti-feedant effect or growth inhibition) at 200 ppm [1] | percent effect (mortality or growth inhibition) at 200 ppm [3] | mortality at 200 ppm [5] | percent effect (mortality or growth inhibition) at 200 ppm [6]

CCS(=O)(=O)c1cc(-c2nc(C(F)(F)F)cs2)cnc1C(=O)/N=c1\sc(C(F)(F)F)nn1C [Compound P60]
≥ 80%: percent control (mortality, anti-feedant effect or growth inhibition) at 200 ppm [1] | percent effect (mortality or growth inhibition) at 200 ppm [3] | percent control (mortality, anti-feedant effect or growth inhibition) at 12.5 ppm [4] | mortality at 200 ppm [5] | percent effect (mortality or growth inhibition) at 200 ppm [6]

CCS(=O)(=O)c1cc(-c2cncc(C(F)(F)F)n2)cnc1C(=O)/N=c1\sc(C(F)(F)F)nn1C [Compound P61]
≥ 80%: percent control (mortality, anti-feedant effect or growth inhibition) at 200 ppm [1] | mortality at 200 ppm [2] | percent effect (mortality or growth inhibition) at 200 ppm [3] | percent control (mortality, anti-feedant effect or growth inhibition) at 12.5 ppm [4] | percent effect (mortality or growth inhibition) at 200 ppm [6]

CCS(=O)(=O)c1cc(-c2cccc(Cl)n2)cnc1C(=O)/N=c1\sc(C(F)(F)F)nn1C [Compound P64, (N)-5-(6-chloro-2-pyridyl)-3-ethylsulfonyl-N-[3-methyl-5-(trifluoromethyl)-1,3,4-thiadiazol-2-ylidene]pyridine-2-carboxamide]
≥ 80%: percent control (mortality, anti-feedant effect or growth inhibition) at 200 ppm [1] | mortality at 200 ppm [2] | percent effect (mortality or growth inhibition) at 200 ppm [3] | mortality at 200 ppm [5] | percent effect (mortality or growth inhibition) at 200 ppm [6]

CCS(=O)(=O)c1cc(-c2ncc(F)cc2F)cnc1C(=O)/N=c1\sc(C(F)(F)F)nn1C [Compound P66]
≥ 80%: percent control (mortality, anti-feedant effect or growth inhibition) at 200 ppm [1] | mortality at 200 ppm [2] | percent effect (mortality or growth inhibition) at 200 ppm [3] | mortality at 200 ppm [5] | percent effect (mortality or growth inhibition) at 200 ppm [6]
